Test results published in US8841312B2, “Fused pyridine, pyrimidine and triazine compounds as cell cycle inhibitors” (Amgen Inc., priority 2007, dated 2014).

What follows are compounds tested against Cdk4/CyclinD1 (Homo sapiens (Human), UniProt P11802) (assay: Cdk4 kinase inhibition assay with recombinant Cdk4/CyclinD1, Rb substrate, [33P]-ATP filter plate). Conditions: 25 μM ATP, read-out: Cdk 4 IC50.
Type: biochemical
Procedure: The Cdk4 and Cdk6 inhibitory activity of the compounds is measured with a kinase inhibition assay using recombinant Cdk4/CyclinD1 or Cdk6/CyclinD3 protein complexes. The protein substrate used in the assay is the retinoblastoma protein (Rb). The kinase reactions are carried out in a 96-well filter plate (MSDV N6B50, Millipore). […] The mixture is incubated at room temperature for 1 hour and the proteins precipitated with an equal volume of 20% TCA. The plates are washed with 10% TCA according to the manufacturer's instruction and dried at room temperature. The amount of the phosphorylated Rb is determined with a TopCount (PerkinElmer). The IC50 of a compound is determined by nonlinear regression curve fitting using software program Prism 5 (GraphPad Software).

Cdk4/CyclinD1, sequence (P11802 whole entry): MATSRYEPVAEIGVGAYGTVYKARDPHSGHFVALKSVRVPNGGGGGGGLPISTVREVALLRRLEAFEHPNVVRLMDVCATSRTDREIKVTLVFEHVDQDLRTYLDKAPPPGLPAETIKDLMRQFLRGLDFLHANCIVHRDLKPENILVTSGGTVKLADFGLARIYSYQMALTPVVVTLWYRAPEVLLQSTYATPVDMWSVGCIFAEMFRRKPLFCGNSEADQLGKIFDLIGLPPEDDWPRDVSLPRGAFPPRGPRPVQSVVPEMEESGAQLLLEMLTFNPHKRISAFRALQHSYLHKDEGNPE
Cdk4/CyclinD1, sequence (P24385 whole entry partner): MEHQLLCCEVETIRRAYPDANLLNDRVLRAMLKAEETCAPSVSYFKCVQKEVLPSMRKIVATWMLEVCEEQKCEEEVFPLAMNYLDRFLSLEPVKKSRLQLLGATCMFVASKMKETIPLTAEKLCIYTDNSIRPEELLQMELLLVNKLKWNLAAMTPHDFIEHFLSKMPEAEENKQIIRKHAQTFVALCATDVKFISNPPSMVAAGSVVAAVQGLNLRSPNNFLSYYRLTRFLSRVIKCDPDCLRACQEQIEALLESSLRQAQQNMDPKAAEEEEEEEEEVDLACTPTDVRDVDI

| Structure (SMILES) | IC50 [nM] |
| --- | --- |
| C[C@H](CO)n1c2cnccc2c2cnc(Nc3ccc(N4CCNCC4)cn3)nc21 [Example 375] | 40 |
| N[C@H]1CCN(c2cnc(Nc3ncc4c5ccncc5n(C5CCCC5)c4n3)cn2)C1 [Example 89] | 7.6 |
| C[C@@H](CO)n1c2cnccc2c2cnc(Nc3ccc(N4CCC(N(C)C)CC4)nn3)nc21 [Example 372] | 129 |
| CN1CCOC2(CCN(c3ccc(Nc4ncc5c6ccncc6n(C6CCCC6)c5n4)nn3)CC2)C1 [Example 251, 9-cyclopentyl-N-(6-(4-methyl-1-oxa-4,9-diazaspiro[5.5]undec-9-yl)-3-pyridazinyl)-9H-pyrido[4′,3′:4,5]pyrrolo[2,3-d]pyrimidin-2-amine] | 3.2 |
| C[C@@H](CO)n1c2cnccc2c2cnc(Nc3ccc(N4CC[C@@H](O)C4)cn3)nc21 [Example 368] | 284 |
| C[C@H](O)Cn1c2cnccc2c2cnc(Nc3ccc(N4CCNC(C)(C)C4)nn3)nc21 [Example 413] | 33 |
| C[C@H]1CN(c2ccc(Nc3ncc4c5ccncc5n([C@H]5CCC[C@@H]5O)c4n3)nc2)CCN1 [Example 401] | 170 |
| CCN(CC)C1CCN(c2ccc(Nc3ncc4c5ccnc(OC)c5n(C5CCCC5)c4n3)nn2)CC1 [Example 283, 9-cyclopentyl-N-(6-(4-(diethylamino)-1-piperidinyl)-3-pyridazinyl)-8-methoxy-9H-pyrido[4′,3′:4,5]pyrrolo[2,3-d]pyrimidin-2-amine] | 11 |
| c1cc2c3cnc(Nc4cnc(N5CCCNCC5)cn4)nc3n(C3CCCC3)c2cn1 [Example 86] | 6.4 |
| CC[C@H](C)n1c2cnccc2c2cnc(Nc3ccc(N4CCC(NC)CC4)cn3)nc21 [Example 335] | 1630 |
| C[C@H](O)Cn1c2cnccc2c2cnc(Nc3ccc(N4CCNCC4)cn3)nc21 [Example 421] | 77 |
| CC1(C)CCC(n2c3nc(Nc4ccc(N5CCNCC5)cn4)ncc3c3ccnc(O)c32)CC1 [Example 208, 9-(4,4-dimethylcyclohexyl)-2-((5-(1-piperazinyl)-2-pyridinyl)amino)-9H-pyrido[4′,3′:4,5]pyrrolo[2,3-d]pyrimidin-8-ol] | 1.8 |
| O[C@@H]1CCN(c2ccc(Nc3ncc4c5ccncc5n([C@H]5CCOC5)c4n3)nn2)C1 [Example 397] | 340 |
| C[C@H]1CN(c2ccc(Nc3ncc4c5cc[nH]c(=O)c5n(C5CCCC5)c4n3)nn2)CCN1 [Example 129] | 16 |
| COC1CCN(c2ccc(Nc3ncc4c5ccncc5n(C5CCCC5)c4n3)nn2)C1 (stereo not shown) [Example 110] | 3.4 |
| CC1CN(c2ccc(Nc3ncc4c5ccncc5n(C5CCCC5)c4n3)nn2)CC(C)N1 (stereo not shown) [Example 113] | 4.2 |
| CC1(C)CN(c2ccc(Nc3ncc4c5ccncc5n([C@H]5CCC[C@H]5O)c4n3)nc2)CCN1 [Example 360] | 66 |
| CCN(CC)C1CCN(c2ccc(Nc3ncc4c5ccnc(OC)c5n(C5CCCC5)c4n3)nc2)CC1 [Example 285, 9-cyclopentyl-N-(5-(4-(diethylamino)-1-piperidinyl)-2-pyridinyl)-8-methoxy-9H-pyrido[4′,3′:4,5]pyrrolo[2,3-d]pyrimidin-2-amine] | 2.6 |
| CC1CCN(c2cnc(Nc3ncc4c5ccncc5n(C5CCCC5)c4n3)cn2)C1 (stereo not shown) [Example 88] | 477 |
| C[C@H](O)Cn1c2cnccc2c2cnc(Nc3ccc(N4CCC(N(C)C)CC4)nn3)nc21 [Example 410] | 240 |
| N#CC1CCN(c2ccc(Nc3ncc4c5ccncc5n(C5CCCC5)c4n3)nn2)C1 (stereo not shown) [Example 118] | 4.2 |
| C[C@H](CO)n1c2cnccc2c2cnc(Nc3ccc(N4CCNC(C)(C)C4)cn3)nc21 [Example 383] | 62 |
| C[C@H](CO)n1c2cnccc2c2cnc(Nc3ccc(N4CCNCC4)nn3)nc21 [Example 384] | 143 |
| c1cc2c3cnc(Nc4ccc(N5CCC6(CCCN6)CC5)nn4)nc3n(C3CCCC3)c2cn1 [Example 232, 9-cyclopentyl-N-(6-(1,8-diazaspiro[45]dec-8-yl)-3-pyridazinyl)-9H-pyrido[4′,3′:4,5]pyrrolo[2,3-d]pyrimidin-2-amine] | 7.2 |
| c1cncc(-c2ccc(Nc3ncc4c5ccncc5n(C5CCCC5)c4n3)nn2)c1 [Example 267, 9-Cyclopentyl-N-(6-(3-pyridinyl)-3-pyridazinyl)-9H-pyrido[4′,3′:4,5]pyrrolo[2,3-d]pyrimidin-2-amine] | 73 |
| C[C@H]1CN(c2cnc(Nc3ncc4c5ccncc5n(C5CCCC5)c4n3)cn2)CCN1 [Example 81] | 9.2 |
| O[C@@H]1CCN(c2ccc(Nc3ncc4c5ccncc5n([C@H]5CCC[C@@H]5O)c4n3)nc2)C1 [Example 403] | 350 |
| C[C@@H](O)Cn1c2cnccc2c2cnc(Nc3ccc(N4CCNC(C)(C)C4)nn3)nc21 [Example 418] | 112 |

| Structure (SMILES) | IC50 [nM] |
| --- | --- |
| CN1CCN(c2cnc(Nc3ncc4c5ccncc5n(C5CCCC5)c4n3)cn2)CC1 [Example 78] | 15 |
| c1cc2c3cnc(Nc4nsc(NC5CCNC5)n4)nc3n(C3CCCC3)c2cn1 (stereo not shown) [Example 135] | 10000 |
| C[C@@H]1CN(c2ccc(Nc3ncc4c5ccncc5n(C5CCCC5)c4n3)nc2)CCN1 [Example 61] | 1.7 |
| O=C(O)CC1CCN(c2ccc(Nc3ncc4c5ccnc(F)c5n(C5CCCC5)c4n3)nc2)CC1 [Example 175, (1-(6-((9-Cyclopentyl-8-fluoro-9H-pyrido[4′,3′:4,5]pyrrolo[2,3-d]pyrimidin-2-yl)amino)-3-pyridinyl)-4-piperidinyl)acetic acid] | 37 |
| C[C@H]1CN(c2ccc(Nc3ncc4c5ccncc5n([C@H]5CCC[C@@H]5O)c4n3)nn2)CCN1 [Example 407] | 35 |
| CC1(C)CN(c2ccc(Nc3ncc4c5ccncc5n([C@@H]5CCOC5)c4n3)nn2)CCN1 [Example 430] | 21 |
| CN(C)C1CCN(c2ccc(Nc3ncc4c5ccncc5n([C@H]5CCOC5)c4n3)nn2)CC1 [Example 395] | 300 |
| CCN(CC)C1CCN(c2ccc(Nc3ncc4c5ccnc(O)c5n(C5CCCC5)c4n3)nc2)CC1 [Example 284, 9-Cyclopentyl-2-((5-(4-(diethylamino)-1-piperidinyl)-2-pyridinyl)amino)-9H-pyrido[4′,3′:4,5]pyrrolo[2,3-d]pyrimidin-8-ol] | 5 |
| CN1CCN(c2ccc(Nc3ncc4c5cc[nH]c(=O)c5n(C5CCCC5)c4n3)nn2)CC1 [Example 128] | 29 |
| C[C@@H](O)Cn1c2cnccc2c2cnc(Nc3ccc(N4CCNC(C)(C)C4)cn3)nc21 [Example 426] | 115 |
| CNC1CCN(c2ccc(Nc3ncc4c5ccncc5n(C5CCCC5)c4n3)nc2)CC1 [Example 75] | 1.4 |
| c1cc2c3cnc(Nc4ccc(N[C@@H]5CCNC5)nn4)nc3n(C3CCCC3)c2cn1 [Example 91] | 6.1 |
| O=C(c1ccc(Nc2ncc3c4ccnc(F)c4n(C4CCCC4)c3n2)nc1)N1CCNCC1 [Example 222, 9-cyclopentyl-8-fluoro-N-(5-(1-piperazinylcarbonyl)-2-pyridinyl)-9H-pyrido[4′,3′:4,5]pyrrolo[2,3-d]pyrimidin-2-amine] | 6 |
| c1cc2c3cnc(Nc4ccc(N5CCNCC5)cn4)nc3n(C3CCCCC3)c2cn1 [Example 23, (9-Cyclohexyl-9H-pyrido[4′,3′,4,5]pyrrolo[2,3-d]pyrimidin-2-yl)-(5-piperazin-1-yl-pyridin-2-yl)-amine] | 11 |
| C[C@H]1CN(c2ccc(Nc3ncc4c5ccncc5n([C@@H]5CCNC5)c4n3)nc2)CCN1 [Example 339] | 300 |
| C[C@@H](CO)n1c2cnccc2c2cnc(Nc3ccc(N4CCNC(C)(C)C4)cn3)nc21 [Example 378] | 85 |
| CC[C@H](C)n1c2cnccc2c2cnc(Nc3ccc(N4CCN[C@@H](C)C4)nn3)nc21 [Example 333] | 300 |
| NCC1CCCN(c2ccc(Nc3ncc4c5ccncc5n(C5CCCC5)c4n3)nc2)C1 (stereo not shown) [Example 67] | 1.3 |
| CCN(CC)C1CCN(c2ccc(Nc3ncc4c5ccnc(F)c5n(C5CCCC5)c4n3)nc2)CC1 [Example 278, 9-Cyclopentyl-N-(5-(4-(diethylamino)-1-piperidinyl)-2-pyridinyl)-8-fluoro-9H-pyrido[4′,3′:4,5]pyrrolo[2,3-d]pyrimidin-2-amine] | 4.6 |
| NC(=O)CC1CCN(c2ccc(Nc3ncc4c5ccnc(F)c5n(C5CCCC5)c4n3)nc2)CC1 [Example 176, 2-(1-(6-((9-Cyclopentyl-8-fluoro-9H-pyrido[4′,3′:4,5]pyrrolo[2,3-d]pyrimidin-2-yl)amino)-3-pyridinyl)-4-piperidinyl)acetamide] | 930 |
| CN(C)C1CCN(c2ccc(Nc3ncc4c5cc[nH]c(=O)c5n(C5CCCC5)c4n3)nc2)CC1 [Example 123] | 48.1 |
| CC[C@H](C)n1c2cnccc2c2cnc(Nc3ccc(N4CCNC(C)(C)C4)cn3)nc21 [Example 328] | 51 |
| CNC1CCN(c2ccc(Nc3ncc4c5ccncc5n([C@H]5CCC[C@@H]5O)c4n3)nn2)CC1 [Example 406] | 360 |
| O[C@H]1CCC[C@@H]1n1c2cnccc2c2cnc(Nc3ccc(N4CCNCC4)nn3)nc21 [Example 404] | 820 |
| NCC1CCCN(c2ccc(Nc3ncc4c5ccncc5n(C5CCCC5)c4n3)nn2)C1 (stereo not shown) [Example 95] | 4.4 |
| c1ncc2c(n1)c1cnc(Nc3ccc(N4CCNCC4)cn3)nc1n2C1CCCC1 [Example 59, 5-Cyclopentyl-N-(5-(1-piperazinyl)-2-pyridinyl)-5H-pyrimido[4′,5′:4,5]pyrrolo[2,3-d]pyrimidin-7-amine] | 15 |
| O[C@@H]1CCN(c2ccc(Nc3ncc4c5ccncc5n([C@H]5CCC[C@H]5O)c4n3)nn2)C1 [Example 366] | 330 |
